Experimental data as given in ChEMBL document CHEMBL1201862, “PubChem BioAssay data set” (2004).
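All cell lines were grown in 96-well plates and treated with compound for 48 hours. GI50 is the concentration that inhibits growth by half.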 The source made the active and inactive calls. No stated cut-off is given here; in the data, active = GI50 up to about 1.1 µM and inactive = higher.

Legend:
Test in all cases: DTP human tumour cell line panel, 48 h
NCI-H522 = test system: NCI-H522
SK-MEL-28 = test system: SK-MEL-28
OVCAR-4 = test system: OVCAR-4
OVCAR-3 = test system: OVCAR-3
U-251 = test system: U-251
SF-539 = test system: SF-539
T47D = test system: T47D
RPMI-8226 = test system: RPMI-8226
SW-620 = test system: SW-620
A498 = test system: A498
SF-295 = test system: SF-295
MOLT-4 = test system: MOLT-4
M14 = test system: M14
Hs-578T = test system: Hs-578T
NCI-H226 = test system: NCI-H226
NCI/ADR-RES = test system: NCI/ADR-RES
IGROV-1 = test system: IGROV-1
MDA-MB-231 = test system: MDA-MB-231
UACC-257 = test system: UACC-257
SN12C = test system: SN12C

Measured: GI50

CC1(C)CC2=C(Sc3ccccc3N2)C(=O)C1C(=O)C(=O)Nc1cccc([N+](=O)[O-])c1 (stereo not given)
inactive: NCI-H522 > 100 µM | SK-MEL-28 > 100 µM | OVCAR-4 82.4 µM | OVCAR-3 85.5 µM | U-251 > 100 µM | SF-539 > 100 µM | T47D > 100 µM | RPMI-8226 64.6 µM | SW-620 > 100 µM | A498 > 100 µM | SF-295 > 100 µM | MOLT-4 33 µM | M14 > 100 µM | Hs-578T > 100 µM | NCI-H226 > 100 µM | NCI/ADR-RES > 100 µM | IGROV-1 > 100 µM | MDA-MB-231 99.3 µM | UACC-257 > 100 µM | SN12C > 100 µM

C=C1c2nc3ccccc3n2C=C(c2ccc(OC)cc2)N1c1ccc(OCCN2CCCCC2)cc1
inactive: NCI-H522 > 100 µM | SK-MEL-28 31.2 µM | OVCAR-4 11.6 µM | OVCAR-3 19.9 µM | U-251 7.59 µM | SF-539 20.2 µM | T47D 26.6 µM | RPMI-8226 2.9 µM | SW-620 6.27 µM | A498 35.7 µM | SF-295 8.85 µM | MOLT-4 2.58 µM | M14 14.2 µM | Hs-578T 11.2 µM | NCI-H226 28.2 µM | NCI/ADR-RES 4.73 µM | IGROV-1 12.4 µM | MDA-MB-231 19.8 µM | UACC-257 1.49 µM | SN12C 27.1 µM

Cc1cc(C)nc(NC(=S)Nc2ccc(Cl)cc2)c1
inactive: NCI-H522 1.37 µM | SK-MEL-28 > 100 µM | OVCAR-4 18.4 µM | OVCAR-3 > 100 µM | U-251 35.9 µM | SF-539 53.2 µM | T47D > 100 µM | RPMI-8226 > 100 µM | SW-620 > 100 µM | A498 48.3 µM | SF-295 43.1 µM | MOLT-4 > 100 µM | M14 > 100 µM | Hs-578T 21.5 µM | NCI-H226 27.8 µM | NCI/ADR-RES 29.2 µM | IGROV-1 65.8 µM | MDA-MB-231 74.8 µM | UACC-257 > 100 µM | SN12C > 100 µM

CC(=O)N[C@@H](Cc1ccc(O)cn1)C(=O)NC1CCCCC1
inactive: NCI-H522 30.3 µM | SK-MEL-28 > 100 µM | OVCAR-4 > 100 µM | OVCAR-3 > 100 µM | U-251 > 100 µM | SF-539 > 100 µM | T47D > 100 µM | RPMI-8226 > 100 µM | SW-620 > 100 µM | A498 > 100 µM | SF-295 > 100 µM | MOLT-4 > 100 µM | M14 > 100 µM | Hs-578T > 100 µM | NCI-H226 > 100 µM | NCI/ADR-RES > 100 µM | IGROV-1 > 100 µM | MDA-MB-231 > 100 µM | UACC-257 > 100 µM | SN12C > 100 µM

Nc1nc(N)c(C2=CCNCC2)c(=O)[nH]1
inactive: NCI-H522 > 100 µM | SK-MEL-28 > 100 µM | OVCAR-4 > 100 µM | OVCAR-3 > 100 µM | U-251 > 100 µM | SF-539 > 100 µM | T47D > 100 µM | RPMI-8226 > 100 µM | SW-620 > 100 µM | A498 > 100 µM | SF-295 > 100 µM | MOLT-4 > 100 µM | M14 > 100 µM | Hs-578T > 100 µM | NCI-H226 > 100 µM | NCI/ADR-RES > 100 µM | IGROV-1 > 100 µM | MDA-MB-231 > 100 µM | UACC-257 > 100 µM | SN12C > 100 µM

Oc1nc2cc(Cl)ccc2nc1/C(=N\Nc1ccccc1)C(O)c1ccc2c(c1)OCO2 (stereo not given)
inactive: NCI-H522 > 100 µM | SK-MEL-28 > 100 µM | OVCAR-4 > 100 µM | OVCAR-3 > 100 µM | U-251 > 100 µM | SF-539 > 100 µM | T47D 72.8 µM | RPMI-8226 > 100 µM | SW-620 > 100 µM | A498 > 100 µM | SF-295 > 100 µM | MOLT-4 > 100 µM | M14 > 100 µM | Hs-578T > 100 µM | NCI-H226 > 100 µM | NCI/ADR-RES > 100 µM | IGROV-1 > 100 µM | MDA-MB-231 > 100 µM | UACC-257 > 100 µM | SN12C > 100 µM

CCc1c(Cl)c(C)cc(O)c1Cl
inactive: NCI-H522 30.7 µM | SK-MEL-28 58.3 µM | OVCAR-4 34.1 µM | OVCAR-3 52 µM | U-251 15.6 µM | SF-539 23 µM | T47D 26.8 µM | RPMI-8226 24.1 µM | SW-620 20.6 µM | A498 18.8 µM | SF-295 33.1 µM | MOLT-4 27.4 µM | M14 34.7 µM | Hs-578T 25.7 µM | NCI-H226 20.9 µM | NCI/ADR-RES 45.2 µM | IGROV-1 51.1 µM | MDA-MB-231 40.7 µM | UACC-257 29.6 µM | SN12C 16.7 µM

O=C1OC(=O)C2CCCC3CCCC1C32 (stereo not given)
inactive: NCI-H522 > 100 µM | SK-MEL-28 > 100 µM | OVCAR-4 > 100 µM | OVCAR-3 > 100 µM | U-251 > 100 µM | SF-539 > 100 µM | T47D > 100 µM | RPMI-8226 > 100 µM | SW-620 > 100 µM | A498 > 100 µM | SF-295 > 100 µM | MOLT-4 > 100 µM | M14 > 100 µM | Hs-578T > 100 µM | NCI-H226 > 100 µM | NCI/ADR-RES > 100 µM | IGROV-1 > 100 µM | MDA-MB-231 > 100 µM | UACC-257 > 100 µM | SN12C > 100 µM

c1cc2c(c(NC3=NCCO3)c1)CCC2
inactive: NCI-H522 > 100 µM | SK-MEL-28 > 100 µM | OVCAR-4 > 100 µM | OVCAR-3 > 100 µM | U-251 > 100 µM | SF-539 > 100 µM | T47D > 100 µM | RPMI-8226 > 100 µM | SW-620 > 100 µM | A498 > 100 µM | SF-295 > 100 µM | MOLT-4 > 100 µM | M14 > 100 µM | Hs-578T 78.2 µM | NCI-H226 > 100 µM | NCI/ADR-RES > 100 µM | IGROV-1 > 100 µM | MDA-MB-231 > 100 µM | UACC-257 > 100 µM | SN12C > 100 µM

CC1C(=O)O[B-]2(c3ccccc3)Oc3ccccc3C=[N+]12 (stereo not given)
inactive: NCI-H522 > 100 µM | SK-MEL-28 > 100 µM | OVCAR-4 > 100 µM | OVCAR-3 > 100 µM | U-251 > 100 µM | SF-539 > 100 µM | T47D > 100 µM | RPMI-8226 > 100 µM | SW-620 > 100 µM | A498 > 100 µM | SF-295 > 100 µM | MOLT-4 > 100 µM | M14 > 100 µM | Hs-578T > 100 µM | NCI-H226 > 100 µM | NCI/ADR-RES > 100 µM | IGROV-1 > 100 µM | MDA-MB-231 > 100 µM | UACC-257 > 100 µM | SN12C > 100 µM

CC1(O)CCC(C(C)(C)O)CC1 (stereo not given) [TERPIN]
inactive: NCI-H522 > 100 µM | SK-MEL-28 > 100 µM | OVCAR-4 > 100 µM | OVCAR-3 > 100 µM | U-251 > 100 µM | SF-539 > 100 µM | T47D > 100 µM | RPMI-8226 > 100 µM | SW-620 > 100 µM | A498 > 100 µM | SF-295 > 100 µM | MOLT-4 > 100 µM | M14 > 100 µM | Hs-578T > 100 µM | NCI-H226 > 100 µM | NCI/ADR-RES > 100 µM | IGROV-1 16.1 µM | MDA-MB-231 > 100 µM | UACC-257 > 100 µM | SN12C > 100 µM
